Experimental data taken from ChEMBL document CHEMBL4507279, “Data for DCP probe BI-9627” (2021).

Assays:
Details in all cases: Compound concentration 1000.0 nM
[1] = biological target: MAP/microtubule affinity-regulating kinase 4 (Homo sapiens) (UniProt Q96L34)
[2] = biological target: Vascular endothelial growth factor receptor 2 (Homo sapiens) (UniProt P35968)
[3] = biological target: Aurora kinase B (Homo sapiens) (UniProt Q96GD4)
[4] = biological target: Dual specificity mitogen-activated protein kinase kinase 4 (Homo sapiens) (UniProt P45985)
[5] = biological target: Phosphatidylinositol 4-phosphate 3-kinase C2 domain-containing subunit beta (Homo sapiens) (UniProt O00750)
[6] = biological target: Myosin light chain kinase 2, skeletal/cardiac muscle (Homo sapiens) (UniProt Q9H1R3)
[7] = biological target: Inhibitor of nuclear factor kappa-B kinase subunit epsilon (Homo sapiens) (UniProt Q14164)
[8] = biological target: Serine/threonine-protein kinase NIM1 (Homo sapiens) (UniProt Q8IY84)
[9] = biological target: Testis-specific serine/threonine-protein kinase 3 (Homo sapiens) (UniProt Q96PN8)
[10] = biological target: Glycogen synthase kinase-3 alpha (Homo sapiens) (UniProt P49840)
[11] = biological target: Ribosomal protein S6 kinase alpha-3 (Homo sapiens) (UniProt P51812)
Sequence of Ribosomal protein S6 kinase alpha-3 (Homo sapiens) (P51812 whole entry, canonical isoform): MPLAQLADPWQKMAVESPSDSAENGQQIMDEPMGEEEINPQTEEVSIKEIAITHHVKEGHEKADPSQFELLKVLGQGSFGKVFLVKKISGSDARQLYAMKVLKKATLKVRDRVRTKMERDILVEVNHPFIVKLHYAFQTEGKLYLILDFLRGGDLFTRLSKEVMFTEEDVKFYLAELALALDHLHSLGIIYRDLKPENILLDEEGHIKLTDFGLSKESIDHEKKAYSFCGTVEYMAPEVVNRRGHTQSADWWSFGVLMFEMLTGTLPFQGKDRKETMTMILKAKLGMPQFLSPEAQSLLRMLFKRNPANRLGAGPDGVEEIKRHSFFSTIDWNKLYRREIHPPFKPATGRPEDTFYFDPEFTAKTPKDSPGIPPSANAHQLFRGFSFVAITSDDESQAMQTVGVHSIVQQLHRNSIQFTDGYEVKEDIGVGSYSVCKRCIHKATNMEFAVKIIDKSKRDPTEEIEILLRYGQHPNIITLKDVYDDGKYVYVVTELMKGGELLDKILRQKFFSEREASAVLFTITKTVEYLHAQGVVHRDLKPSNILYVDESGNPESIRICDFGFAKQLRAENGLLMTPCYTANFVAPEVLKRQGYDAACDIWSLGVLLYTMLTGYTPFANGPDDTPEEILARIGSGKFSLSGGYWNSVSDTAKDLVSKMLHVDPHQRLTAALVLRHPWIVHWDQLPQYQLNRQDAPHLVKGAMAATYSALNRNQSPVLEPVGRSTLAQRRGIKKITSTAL

[12] = system: Phosphatidylinositol 4,5-bisphosphate 3-kinase catalytic subunit alpha isoform (Homo sapiens), P42336 [C420R]
[13] = biological target: Ephrin type-A receptor 1 (Homo sapiens) (UniProt P21709)
[14] = biological target: Cyclin-dependent kinase 4 (Homo sapiens) (UniProt P11802)
[15] = biological target: Mitogen-activated protein kinase kinase kinase 1 (Homo sapiens) (UniProt Q13233)
[16] = biological target: Serine/threonine-protein kinase Chk1 (Homo sapiens) (UniProt O14757)
Sequence of Serine/threonine-protein kinase Chk1 (Homo sapiens) (O14757 whole entry): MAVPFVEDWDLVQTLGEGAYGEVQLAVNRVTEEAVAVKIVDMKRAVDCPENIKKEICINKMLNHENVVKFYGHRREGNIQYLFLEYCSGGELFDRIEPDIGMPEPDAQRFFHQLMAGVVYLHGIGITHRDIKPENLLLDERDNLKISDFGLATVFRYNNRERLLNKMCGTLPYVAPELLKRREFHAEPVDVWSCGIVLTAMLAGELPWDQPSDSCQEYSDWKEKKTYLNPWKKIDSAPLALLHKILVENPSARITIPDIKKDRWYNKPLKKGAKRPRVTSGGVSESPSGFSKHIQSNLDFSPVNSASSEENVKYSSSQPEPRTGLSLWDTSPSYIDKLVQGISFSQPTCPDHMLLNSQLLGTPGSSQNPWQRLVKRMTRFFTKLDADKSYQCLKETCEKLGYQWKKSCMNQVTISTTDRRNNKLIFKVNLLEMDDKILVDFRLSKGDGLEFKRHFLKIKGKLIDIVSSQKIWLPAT

[17] = biological target: Protein kinase C theta type (Homo sapiens) (UniProt Q04759)
[18] = biological target: Cyclin-dependent kinase 18 (Homo sapiens) (UniProt Q07002)
[19] = biological target: Mitogen-activated protein kinase kinase kinase kinase 5 (Homo sapiens) (UniProt Q9Y4K4)
[20] = biological target: Serine/threonine-protein kinase 24 (Homo sapiens) (UniProt Q9Y6E0)
[21] = biological target: Serine/threonine-protein kinase SIK2 (Homo sapiens) (UniProt Q9H0K1)
[22] = system: Tyrosine-protein kinase ABL1 (Homo sapiens), P00519 [Q252H]
[23] = biological target: Cyclin-dependent kinase-like 2 (Homo sapiens) (UniProt Q92772)
[24] = biological target: Cyclin-dependent kinase 16 (Homo sapiens) (UniProt Q00536)
[25] = biological target: Serine/threonine-protein kinase D1 (Homo sapiens) (UniProt Q15139)
[26] = biological target: Tyrosine-protein kinase Lyn (Homo sapiens) (UniProt P07948)
Sequence of Tyrosine-protein kinase Lyn (Homo sapiens) (P07948 2-512 limits assumed): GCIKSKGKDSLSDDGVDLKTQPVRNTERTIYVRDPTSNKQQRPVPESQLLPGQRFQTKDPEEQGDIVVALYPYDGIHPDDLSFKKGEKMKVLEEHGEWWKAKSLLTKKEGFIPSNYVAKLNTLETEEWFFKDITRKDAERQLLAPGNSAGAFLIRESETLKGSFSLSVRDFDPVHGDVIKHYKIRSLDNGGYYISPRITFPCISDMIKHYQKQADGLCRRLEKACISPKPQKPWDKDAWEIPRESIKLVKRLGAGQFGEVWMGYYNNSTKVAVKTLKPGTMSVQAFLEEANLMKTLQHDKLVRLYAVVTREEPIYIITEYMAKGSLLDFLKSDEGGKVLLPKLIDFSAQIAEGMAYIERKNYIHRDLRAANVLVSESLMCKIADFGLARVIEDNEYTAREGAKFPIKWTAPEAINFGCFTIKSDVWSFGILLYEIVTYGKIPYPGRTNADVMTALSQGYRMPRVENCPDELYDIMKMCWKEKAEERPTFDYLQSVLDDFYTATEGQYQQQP

[27] = biological target: Cyclin-dependent kinase 15 (Homo sapiens) (UniProt Q96Q40)
[28] = biological target: Maternal embryonic leucine zipper kinase (Homo sapiens) (UniProt Q14680)
[29] = biological target: Beta-adrenergic receptor kinase 1 (Homo sapiens) (UniProt P25098)
[30] = biological target: MAP kinase-activated protein kinase 2 (Homo sapiens) (UniProt P49137)
[31] = biological target: Mitogen-activated protein kinase kinase kinase 14 (Homo sapiens) (UniProt Q99558)
Sequence of Mitogen-activated protein kinase kinase kinase 14 (Homo sapiens) (Q99558 whole entry, looked up): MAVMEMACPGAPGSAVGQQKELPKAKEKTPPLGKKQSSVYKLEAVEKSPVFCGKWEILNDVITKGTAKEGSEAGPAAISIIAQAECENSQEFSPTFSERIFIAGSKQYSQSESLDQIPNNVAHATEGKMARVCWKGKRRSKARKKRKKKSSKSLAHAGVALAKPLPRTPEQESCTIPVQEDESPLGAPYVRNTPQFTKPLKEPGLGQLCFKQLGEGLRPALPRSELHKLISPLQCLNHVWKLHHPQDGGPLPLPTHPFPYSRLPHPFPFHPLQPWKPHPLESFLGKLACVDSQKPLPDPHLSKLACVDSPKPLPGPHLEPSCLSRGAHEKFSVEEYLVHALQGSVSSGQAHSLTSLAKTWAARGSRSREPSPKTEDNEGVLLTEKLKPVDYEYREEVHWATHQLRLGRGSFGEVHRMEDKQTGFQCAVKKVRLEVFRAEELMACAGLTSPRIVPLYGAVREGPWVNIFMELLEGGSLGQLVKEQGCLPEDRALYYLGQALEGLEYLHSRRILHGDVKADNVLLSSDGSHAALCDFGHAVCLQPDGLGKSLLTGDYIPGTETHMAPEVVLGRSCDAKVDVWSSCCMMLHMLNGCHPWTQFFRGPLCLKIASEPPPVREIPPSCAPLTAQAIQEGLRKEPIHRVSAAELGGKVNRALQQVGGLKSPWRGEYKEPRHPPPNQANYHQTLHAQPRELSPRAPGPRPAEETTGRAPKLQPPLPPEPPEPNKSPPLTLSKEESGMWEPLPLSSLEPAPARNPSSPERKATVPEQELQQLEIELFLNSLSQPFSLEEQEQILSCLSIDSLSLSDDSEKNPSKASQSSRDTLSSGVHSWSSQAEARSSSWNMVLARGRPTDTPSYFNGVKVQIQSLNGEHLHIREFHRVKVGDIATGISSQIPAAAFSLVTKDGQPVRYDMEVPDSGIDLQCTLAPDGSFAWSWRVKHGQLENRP

[32] = biological target: Interferon-induced, double-stranded RNA-activated protein kinase (Homo sapiens) (UniProt P19525)
[33] = biological target: Interleukin-1 receptor-associated kinase 3 (Homo sapiens) (UniProt Q9Y616)
[34] = biological target: Serine/threonine-protein kinase MARK2 (Homo sapiens) (UniProt Q7KZI7)
Sequence of Serine/threonine-protein kinase MARK2 (Homo sapiens) (Q7KZI7 whole entry): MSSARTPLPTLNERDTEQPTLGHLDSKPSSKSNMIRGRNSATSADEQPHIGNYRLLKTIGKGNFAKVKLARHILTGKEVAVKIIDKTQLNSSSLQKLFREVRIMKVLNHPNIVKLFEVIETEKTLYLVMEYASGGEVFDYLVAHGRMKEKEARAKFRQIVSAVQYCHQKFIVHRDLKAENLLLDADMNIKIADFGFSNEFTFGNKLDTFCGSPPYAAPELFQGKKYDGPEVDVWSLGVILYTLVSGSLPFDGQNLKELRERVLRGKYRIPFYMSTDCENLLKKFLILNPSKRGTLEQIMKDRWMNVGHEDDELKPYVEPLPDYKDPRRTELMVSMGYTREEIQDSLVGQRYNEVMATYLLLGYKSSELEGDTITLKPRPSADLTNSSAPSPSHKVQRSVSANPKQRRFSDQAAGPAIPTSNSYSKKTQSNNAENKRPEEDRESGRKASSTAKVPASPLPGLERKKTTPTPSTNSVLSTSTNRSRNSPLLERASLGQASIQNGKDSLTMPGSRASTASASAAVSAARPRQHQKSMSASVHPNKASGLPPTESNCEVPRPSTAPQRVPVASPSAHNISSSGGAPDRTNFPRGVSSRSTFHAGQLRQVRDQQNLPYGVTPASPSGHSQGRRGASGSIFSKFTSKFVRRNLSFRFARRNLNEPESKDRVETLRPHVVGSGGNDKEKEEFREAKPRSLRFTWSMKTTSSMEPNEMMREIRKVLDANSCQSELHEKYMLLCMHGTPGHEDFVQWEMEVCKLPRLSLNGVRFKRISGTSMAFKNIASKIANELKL

[35] = biological target: Serine/threonine-protein kinase pim-1 (Homo sapiens) (UniProt P11309)
[36] = biological target: Dual serine/threonine and tyrosine protein kinase (Homo sapiens) (UniProt Q6XUX3)
[37] = biological target: Serine/threonine-protein kinase 4 (Homo sapiens) (UniProt Q13043)
[38] = biological target: BMP-2-inducible protein kinase (Homo sapiens) (UniProt Q9NSY1)
[39] = biological target: Protein kinase C epsilon type (Homo sapiens) (UniProt Q02156)
[40] = biological target: Calcium/calmodulin-dependent protein kinase type 1G (Homo sapiens) (UniProt Q96NX5)
[41] = biological target: Cyclin-dependent kinase-like 3 (Homo sapiens) (UniProt Q8IVW4)
[42] = biological target: Calcium/calmodulin-dependent protein kinase type II subunit gamma (Homo sapiens) (UniProt Q13555)
Sequence of Calcium/calmodulin-dependent protein kinase type II subunit gamma (Homo sapiens) (Q13555 whole entry): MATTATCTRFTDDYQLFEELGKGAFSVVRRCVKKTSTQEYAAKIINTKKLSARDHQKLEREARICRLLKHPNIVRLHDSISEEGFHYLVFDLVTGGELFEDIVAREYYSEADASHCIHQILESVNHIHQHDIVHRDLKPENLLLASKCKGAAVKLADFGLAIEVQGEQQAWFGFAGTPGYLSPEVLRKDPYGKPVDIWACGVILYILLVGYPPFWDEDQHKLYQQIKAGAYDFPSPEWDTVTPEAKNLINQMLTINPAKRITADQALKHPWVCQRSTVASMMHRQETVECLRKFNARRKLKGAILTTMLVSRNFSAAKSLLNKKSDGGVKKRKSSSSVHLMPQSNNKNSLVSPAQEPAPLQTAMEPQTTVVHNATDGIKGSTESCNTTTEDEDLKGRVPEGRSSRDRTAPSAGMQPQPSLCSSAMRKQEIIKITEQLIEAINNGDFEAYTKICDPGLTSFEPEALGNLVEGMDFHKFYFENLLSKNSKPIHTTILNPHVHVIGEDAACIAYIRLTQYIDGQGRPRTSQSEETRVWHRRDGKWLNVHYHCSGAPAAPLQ

[43] = biological target: Macrophage colony-stimulating factor 1 receptor (Homo sapiens) (UniProt P07333)
Sequence of Macrophage colony-stimulating factor 1 receptor (Homo sapiens) (P07333 whole entry): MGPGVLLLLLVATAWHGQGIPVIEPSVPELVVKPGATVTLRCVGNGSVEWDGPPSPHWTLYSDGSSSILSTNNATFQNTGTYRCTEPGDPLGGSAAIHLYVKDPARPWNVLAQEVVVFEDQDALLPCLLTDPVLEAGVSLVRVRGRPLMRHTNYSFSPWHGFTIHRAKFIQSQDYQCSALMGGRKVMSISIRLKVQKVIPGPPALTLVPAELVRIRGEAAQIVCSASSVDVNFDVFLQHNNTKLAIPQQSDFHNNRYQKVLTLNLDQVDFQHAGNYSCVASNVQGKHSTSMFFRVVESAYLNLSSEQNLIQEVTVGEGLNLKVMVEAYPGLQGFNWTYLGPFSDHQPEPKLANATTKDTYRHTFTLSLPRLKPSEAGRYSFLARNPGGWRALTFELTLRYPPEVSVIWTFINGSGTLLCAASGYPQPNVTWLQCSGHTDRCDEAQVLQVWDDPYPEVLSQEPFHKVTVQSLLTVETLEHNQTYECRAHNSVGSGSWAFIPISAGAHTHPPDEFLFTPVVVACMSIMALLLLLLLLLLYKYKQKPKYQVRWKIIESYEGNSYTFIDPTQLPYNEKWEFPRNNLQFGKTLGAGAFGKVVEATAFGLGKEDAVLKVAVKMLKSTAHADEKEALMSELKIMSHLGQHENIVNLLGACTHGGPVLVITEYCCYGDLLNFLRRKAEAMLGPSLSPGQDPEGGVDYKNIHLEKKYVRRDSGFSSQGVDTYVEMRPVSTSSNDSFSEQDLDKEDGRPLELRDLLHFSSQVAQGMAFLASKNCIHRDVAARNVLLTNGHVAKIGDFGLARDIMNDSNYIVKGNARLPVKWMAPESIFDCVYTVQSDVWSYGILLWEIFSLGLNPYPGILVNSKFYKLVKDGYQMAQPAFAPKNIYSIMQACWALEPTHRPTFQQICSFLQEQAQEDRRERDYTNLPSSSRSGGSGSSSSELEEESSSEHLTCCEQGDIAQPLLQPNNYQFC

[44] = biological target: Serine/threonine-protein kinase TAO1 (Homo sapiens) (UniProt Q7L7X3)
[45] = biological target: Phosphatidylinositol 5-phosphate 4-kinase type-2 beta (Homo sapiens) (UniProt P78356)

Measured: residual activity

CC(=O)N1CCC(c2ccc(C(=O)NC3=NCCN3)cc2C(F)(F)F)CC1 [BI 0054]
inactive: [1] 100% | [2] 80% | [3] 100% | [4] 100% | [5] 50% | [6] 100% | [7] 71% | [8] 100% | [9] 100% | [10] 78% | [11] 100% | [12] 93% | [13] 88% | [14] 94% | [15] 86% | [16] 100% | [17] 93% | [18] 100% | [19] 100% | [20] 97% | [21] 100% | [22] 86% | [23] 100% | [24] 84% | [25] 100% | [26] 94% | [27] 100% | [28] 100% | [29] 77% | [30] 100% | [31] 95% | [32] 100% | [33] 100% | [34] 100% | [35] 100% | [36] 74% | [37] 100% | [38] 100% | [39] 84% | [40] 100% | [41] 100% | [42] 100% | [43] 100% | [44] 100% | [45] 75%

CC(=O)N1CCC(c2ccc(C(=O)NC(=N)N)cc2C(F)(F)F)CC1 [BI 9627]
inactive: [1] 100% | [2] 93% | [3] 100% | [4] 95% | [5] 95% | [6] 85% | [7] 70% | [8] 100% | [9] 100% | [10] 97% | [11] 95% | [12] 100% | [13] 100% | [14] 97% | [15] 96% | [16] 95% | [17] 91% | [18] 94% | [19] 100% | [20] 100% | [21] 100% | [22] 100% | [23] 100% | [24] 91% | [25] 100% | [26] 100% | [27] 100% | [28] 100% | [29] 96% | [30] 100% | [31] 100% | [32] 100% | [33] 99% | [34] 100% | [35] 100% | [36] 94% | [37] 98% | [38] 96% | [39] 100% | [40] 100% | [41] 100% | [42] 100% | [43] 100% | [44] 100% | [45] 77%
